According to patent publication US20240247236A1, “METHOD FOR PRODUCING PLURIPOTENT STEM CELLS” (KANEKA CORPORATION, priority 2021, published 2024):

Test system: human iPS cell line 201B7
Experiment: Quantitative real-time PCR analysis of germ layer marker genes in suspension culture of human iPS cell line 201B7
Format: cell-based
Details: WNT inhibitor = IWR-1-endo 20 μM, PKCβ inhibitor = GF109203X 3 μM
[1] = day 10 of suspension culture, compared with adherent culture (Reference Example 1)

Procedure: Human iPS cell line 201B7 after adherent culture in the same manner as in Reference Example 1 was treated with Accutase for 5 minutes to be detached from the culture surface, and the cells were dispersed into a single state by pipetting. The cells were suspended in StemFit (registered trademark) AK02N medium containing Y-27632 at a final concentration of 10 μM, and some of the cells were stained with trypan blue, followed by measurement of the viable cell count. A cell suspension was prepared using StemFit (registered trademark) AK02N medium containing Y-27632 at a final concentration of 10 μM such that the cell suspension included 2×10^5 cells per 1 mL. The cell suspension in an amount of 1 mL was seeded per well in a 12-well plate for suspension culture (Sumitomo Bakelite Co., Ltd.). The plate seeded with cells was rotated on a rotary shaker at a speed of 98 rpm along a horizontal plane in a circle with a rotation width (diameter) of 25 mm, during which the suspension culture was performed at 37° C. in a 5% CO2 environment.
The day when the cells were seeded was defined as day 0 of culture, passage was performed on day 5 of culture, and suspension culture was performed until day 10 of culture. Medium exchange was carried out every day. As for the method of medium exchange, the entire amount of the medium containing cell masses was collected into a centrifuge tube, and the tube was allowed to stand for about 5 minutes, thereby settling the cell masses. Then, the culture supernatant was removed, and the residue was gently resuspended in StemFit (registered trademark) AK02N medium, and returned to the original well.
Upon medium exchange, Y-27632 was added to the medium at a final concentration of 5 μM on days 1 and 6 of culture, and Y-27632 was added to the medium at a final concentration of 2 μM on days 2 and 7 of culture. On day 5 of culture, the cell masses and culture supernatant were collected from the wells into a centrifuge tube and allowed to stand for about 5 minutes, thereby settling the cell masses. Then, the culture supernatant was removed.
After adding 1 mL of Accutase to the cell masses, the cell masses were treated at 37° C. for 10 minutes and then dispersed into a single-cell state by pipetting. The cells were suspended in StemFit (registered trademark) AK02N medium containing Y-27632 at a final concentration of 10 μM, and some of the cells were stained with trypan blue, followed by measurement of the viable cell count. A cell suspension was prepared using StemFit (registered trademark) AK02N medium containing Y-27632 at a final concentration of 10 μM such that the cell suspension included 2×10^5 cells per 1 mL. Then, cell seeding was performed in the same manner as in the case of day 0 to continue the suspension culture.
Suspension culture was performed in the same manner as in Reference Example 2, except that IWR-1-endo was added as a WNT inhibitor at a final concentration of 20 μM to the seeding medium and the medium exchanged for new medium for suspension culture.

O=C(Nc1cccc2cccnc12)c1ccc(N2C(=O)[C@@H]3[C@H](C2=O)[C@@H]2C=C[C@H]3C2)cc1 [IWR-1-endo, 4-(1,3,3a,4,7,7a-hexahydro-1,3-dioxo-4,7-methano-2H-isoindole-2-yl)-N-8-quinolinyl-benzamide]
expression level of PAX6 (ectodermal marker gene) [1]: greater than that in Reference Example 1
expression level of SOX17 (endodermal marker gene) [1]: suppressed to the expression levels acceptable for the pluripotent stem cells as with Reference Example 1
expression level of TBXT (mesodermal marker gene) [1]: suppressed to the expression levels acceptable for the pluripotent stem cells as with Reference Example 1
spontaneous differentiation into ectoderm (suspension culture): weak suppressive effect
spontaneous differentiation into mesoderm and endoderm (suspension culture): can effectively suppress
